# Values quoted from earlier work in publication PMC9298350 (British Journal of Clinical Pharmacology, 2021).
smiles,measurement,setting,value
"Cc1c(N(C)CS(=O)(=O)O)c(=O)n(-c2ccccc2)n1C [metamizole, Metamizole]",Frequency of metamizole-associated agranulocytosis,,0.46–1.63 cases per 10^6 daily doses
same,Mortality associated with ingestion,review of the available literature,0.25 per 10^6 prescriptions
